Source: US11918555B2, “Dicarboxylic acid esters for the treatment of diseases and conditions associated with phospholipase D toxin” (priority 2020, dated 2024)

Experiments:
[1] = system: human RBC; test: Hemolysis assay on human RBC (substance alone); type: cell-based
Method: (§1) Hemolytic activity was assessed on human RBC. The assay using human erythrocytes followed an established procedure as described in Evans, et al., “Ex vivo red blood cell hemolysis assay for the evaluation of pH-responsive endosomolytic agents for cytosolic delivery of biomacromolecular drugs,” J Vis Exp, 2013, e50166. Briefly, whole peripheral blood was drawn directly into K2-EDTA coated Vacutainer tubes and centrifuged at 500×g (relative centrifugal force). Pelleted erythrocytes were washed twice each with 150 mM NaCl and with phosphate buffered saline (PBS) and then reconstituted in 50-fold excess PBS. Immediately prior to the assay LOX was reconstituted in 20% glycerol in PBS. rPLD toxin was supplied as frozen stock in 10 mM Tris-HCl, 1 mM EDTA, 20% glycerol, was thawed on ice. The lysis assay was performed in 96-wells in a total volume of 200 ul. LOX and PLD toxin were and added as 20× concentrated stocks to the erythrocyte suspension. Triton X-100 (5% in serial dilutions to 0.04%) was used as a positive control. Incubation was performed for 60 min and the absorbance at 400 nm was measured using Tecan GENios microwell plate reader. Measurements were performed in triplicate repeats.

[2] = system: Loxosceles reclusa venom (LOX); test: Inhibition of hemolysis induced by L. reclusa venom (LOX); type: cell-based
Method: (§2) Lyophilized Loxosceles reclusa venom (LOX) was purchased from SpiderPharm, Yarnell, AZ Immediately prior to the assay LOX was reconstituted in 20% glycerol in PBS. Recombinant Loxosceles intermedia Phospholipase D LiSicTox-alphaIA1a full length protein expressed in E.coli (part #MBS1258368), further referred to as rPLD toxin, was purchased from MyBiosource Inc, San Diego, CA Diethyl azelate (>99% purity) was prepared as described in Streeper, el al.,“Oral Azelaic Acid Ester Decreases Markers Of Insulin Resistance In Overweight Male Human Subjects.” In Vivo (2020), 34(3), 1173-1186.
as §1

[3] = system: brown recluse spider bite; test: Topical diethyl azelate treatment of brown recluse spider bite; type: in vivo, human
Method: An adult subject was bitten once on their left forearm, and twice on their neck about one year later. Diethyl azelate was applied topically to the envenomation site at approximately 4 to 8 hour intervals for 14 days. Images of the affected neck area were normalized to the same size and converted to JPEG files. Inflamed red areas surrounding the bites visible as elevated lesions were outlined on the images and quantified using ImageJ software version 1.53e (ImageJ.nih.gov).

[4] = system: Recombinant Loxosceles intermedia Phospholipase D LiSicTox-alphaIA1a (rPLD toxin); test: Inhibition of hemolysis induced by recombinant PLD toxin; type: cell-based
Method: as §2, §1

Row | Compound | erythrocytes hydrolyzed (hemolysis) ([1]; human erythrocytes incubated with 5% Triton X100, positive control) | inhibition of hemolysis by L. reclusa venom, dose dependence ([2]; FIG. 3 legend) | inhibition of enzymatic activity of PLD toxin as measured by hemolysis induced by L. reclusa spider venom ([2]; FIG. 4 legend) | inhibition of hemolysis ([2]; preincubation of DEA with LOX for 60 min followed by addition of erythrocytes (FIG. 4)) | inhibition of hemolysis ([2]; preincubation of DEA with erythrocytes for 60 min followed by addition of LOX (FIG. 4)) | inhibition of hemolysis in the presence of LOX ([2]; starting at the lowest concentration of 1 μM DEA, constant LOX concentration (FIG. 3)) | swelling and discomfort ([3]; first incident, forearm bite, topical treatment initiated 4 hours after envenomation, by the fourth day) | arm circumference relative to pre-bite ([3]; first incident, forearm bite, topical treatment initiated 4 hours after envenomation, second day) | time of maximum inflamed red area around the bites ([3]; second incident, two neck bites, topical treatment initiated immediately, Day 2) | redness, pain and swelling ([3]; second incident, two neck bites, topical treatment initiated immediately, by Day 14) | effect on hemolysis ([1]; human erythrocytes incubated with 122 μM DEA alone) | hemolysis in the presence of PLD toxin ([4]; 1 μM DEA, reduced from 78%) | hemolysis in the presence of PLD toxin ([4]; 5 μM DEA) | hemolysis in the presence of PLD toxin ([4]; 24 μM DEA) | hemolysis in the presence of PLD toxin ([4]; 122 μM DEA) | inhibition of hemolysis by recombinant L. intermedia rPLD toxin, dose dependence ([4]; FIG. 3 legend) | inhibition of enzymatic activity of PLD toxin as measured by hemolysis induced by recombinant L. intermedia rPLD toxin ([4]; FIG. 4 legend)
1 | Triton X100 [reference compound] | > 95% |  |  |  |  |  |  |  |  |  |  |  |  |  |  |  | 
2 | CCOC(=O)CCCCCCCC(=O)OCC [DEA, Diethyl azelate] |  | inhibits hemolysis | directly inhibits enzymatic activity | inhibition of hemolysis | inhibition of hemolysis | significantly inhibits hemolysis | largely subsided | approximately twice | 26 hours post-bite | entirely resolved | no effect on hemolysis | 43% | 16% | 13% | 5% | inhibits hemolysis | directly inhibits enzymatic activity
